Tests used:
[1] = molecular target: T1, P450RAI-1 (Homo sapiens, UniProt O43174); assay: P450RAI-1 cell-based inhibitor assay; details: P450RAI-1 stably transfected HeLa cells, [3H]-RA metabolism, 3 hours at 37° C.; read-out: P450RAI INHIBITION DATA INTACT HELA IC50
T1 construct: expressed in transfected cells; host or cells: HeLa cells, stably transfected, hygromycin selection
T1 sequence (O43174 1-497): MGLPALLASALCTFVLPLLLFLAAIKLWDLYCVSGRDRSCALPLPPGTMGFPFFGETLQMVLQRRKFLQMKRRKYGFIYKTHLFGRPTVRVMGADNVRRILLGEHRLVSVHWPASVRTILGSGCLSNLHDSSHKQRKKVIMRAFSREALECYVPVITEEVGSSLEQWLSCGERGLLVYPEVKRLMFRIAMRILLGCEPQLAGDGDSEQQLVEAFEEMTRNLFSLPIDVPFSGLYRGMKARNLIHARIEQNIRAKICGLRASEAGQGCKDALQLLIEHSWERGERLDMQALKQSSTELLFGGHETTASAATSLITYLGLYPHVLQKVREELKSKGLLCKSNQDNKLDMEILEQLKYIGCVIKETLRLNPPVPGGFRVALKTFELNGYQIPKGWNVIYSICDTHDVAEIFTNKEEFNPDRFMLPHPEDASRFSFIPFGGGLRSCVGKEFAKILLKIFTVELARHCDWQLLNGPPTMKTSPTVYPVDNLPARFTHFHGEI
Outline: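 HeLa cells stably expressing the enzyme (5×10^5/well) incubated 3 h at 37 °C with 0.05 μCi [3H]-all-trans-RA and compound at 10, 1 or 0.1 μM in triplicate. Water-soluble radioactive metabolites counted by scintillation; IC50 derived manually from log-transformed data.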

[2] = molecular target: T2, RARβ (Homo sapiens, UniProt P10826); assay: chimeric receptor transactivation assay, RARβ; format: cell-based; details: EC50 line of EC50/(EFFICACY)/Kd, read-out: RAR EC50 β
T2 sequence (P10826 183-417 limits assumed): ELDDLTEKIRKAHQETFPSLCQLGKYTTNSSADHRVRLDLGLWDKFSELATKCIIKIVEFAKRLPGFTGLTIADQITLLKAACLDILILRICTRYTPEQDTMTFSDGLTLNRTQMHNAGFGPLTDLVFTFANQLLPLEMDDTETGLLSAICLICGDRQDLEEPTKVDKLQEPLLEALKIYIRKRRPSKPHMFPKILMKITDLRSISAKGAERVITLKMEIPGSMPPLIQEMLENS
Description: (§1) Assays described below measure the ability of a compound to bind to, and/or activate various retinoid receptor subtypes. When in these assays a compound binds to a given receptor subtype and activates the transcription of a reporter gene through that subtype, then the compound is considered an agonist of that receptor subtype. […] In the below described assays the ability of the compounds to bind to RARα, RARβ, RARγ, RXRα, RXRβ and RXRγ receptors, and the ability or inability of the compounds to activate transcription of a reporter gene through these receptor subtypes can be tested.
(§2) As far as specific assays are concerned, a chimeric receptor transactivation assay which tests for agonist-like activity in the RARα, RARβ, AND RARγ, receptor subtypes, and which is based on work published by Feigner P. L. and Holm M. (1989) Focus, 112 is described in detail in U.S. Pat. No. 5,455,265. The specification of U.S. Pat. No. 5,455,265 is hereby expressly incorporated by reference. The numeric results obtained with several preferred compounds of this invention in this assay are shown below in Table 1.

[3] = molecular target: T3, RARγ (Homo sapiens, UniProt P13631); assay: chimeric receptor transactivation assay, RARγ; format: cell-based; details: EC50 line of EC50/(EFFICACY)/Kd, read-out: RAR EC50 γ
T3 sequence (P13631 185-419 limits assumed): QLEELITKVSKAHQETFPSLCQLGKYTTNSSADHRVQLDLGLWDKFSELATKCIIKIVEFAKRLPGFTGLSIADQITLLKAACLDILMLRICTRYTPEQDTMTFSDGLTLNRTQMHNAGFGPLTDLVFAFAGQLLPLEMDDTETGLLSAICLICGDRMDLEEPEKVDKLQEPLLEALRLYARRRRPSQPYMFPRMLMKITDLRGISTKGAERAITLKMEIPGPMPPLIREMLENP
Description: as §1, §2

[4] = molecular target: T4, RARα (Homo sapiens, UniProt P10276); assay: chimeric receptor transactivation assay, RARα; format: cell-based; details: EC50 line of EC50/(EFFICACY)/Kd, read-out: RAR EC50 α
T4 sequence (P10276 183-462 limits assumed): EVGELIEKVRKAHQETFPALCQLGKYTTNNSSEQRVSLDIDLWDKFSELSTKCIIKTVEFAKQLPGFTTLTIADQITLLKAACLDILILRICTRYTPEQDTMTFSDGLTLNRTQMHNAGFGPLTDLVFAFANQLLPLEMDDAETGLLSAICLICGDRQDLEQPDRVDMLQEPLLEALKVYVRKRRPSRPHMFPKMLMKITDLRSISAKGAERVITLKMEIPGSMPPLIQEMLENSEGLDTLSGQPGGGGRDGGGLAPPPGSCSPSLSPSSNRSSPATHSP
Description: as §1, §2

Row | Compound | IC50 [1] [nM] | EC50 [2] [nM] | EC50 [3] [nM] | EC50 [4] [nM]
1 | CN(C1CC1)C1CCC(C)(C)c2cc(C#Cc3ccc(C(=O)O)c(F)c3)ccc21 (stereo not shown) [Compound 13, 4-[5-(Cyclopropyl-methyl-amino)-8,8-dimethyl-5,6,7,8-tetrahydro-naphthalene-2-yl-ethynyl]-2-fluoro Benzoic Acid] | 3100 | 3.2 | 116 | –
2 | CC1(C)CCC(=O)c2ccc(C#Cc3ccc(C(=O)O)c(F)c3)cc21 [Compound 10, 2-Fluoro-4-(8,8-dimethyl-5-oxo-5,6,7,8-tetrahydro-naphthalen-2yl-ethynyl)benzoic Acid] | 700 | 0.3 | 6 | 57
